Reference: patent publication US10266545B2, “Coumarin derivative as antiviral agent, pharmaceutical composition thereof, its preparation and use” (I-NOVA MEDICINSKA ISTRAZIVANJA D.O.O., priority 2016, dated 2019)

Tests used:
HIV-1 = assay: Microtiter infectivity assay: protection of MT-4 cells from cytopathic effect of HIV-1 (MTT); assay type: cell-based, human immunodeficiency virus 1 (HIV-1) subtype B; details: for IC50: Human immunodeficiency virus 1, MT4, inhibits 50% viral replication; for Survival (% protection): MT-4 cells infected with HIV-1; for SI = CC50/IC50: selectivity index, MT-4 cells, MTT assay
Experimental: The first study of antiviral activity of compound 1 and the control compound 2 was performed on example of its influence on replication of human immunodeficiency virus 1 (HIV-1) by microtiter infectivity assay in cell culture and by evaluation of concentration of compound 1 or 2, which inhibits virus replication by 50% (IC50) as well as by selectivity index (SI).
The cell line used in this study was also the MT-4 cell line as described above.
A microplate assay of infectivity in cell culture, based on consideration of a cytopathic effect of the virus was described in the literature, see reference 8. At least 4 different concentrations: 10×MNC, MNC^−1, MNC^−2, and MNC^−3 were used.
In each trial, the following controls were set: • (i) cell control—only cells in culture medium and not infected with the virus; and • (ii) viral control—one column to cells infected with the virus were added only medium (200 μl) without the test compound 1 or the control compound 2.
The activity of compound 1 or control compound 2 against the cytopathic effect of HIV-1 was expressed as percentage (%) protection (survival) of the cells defined by the following formula:
[formula] wherein: • ODVS=absorption of cells infected and treated with compound 1 or 2 • ODVC=absorption of the virus-infected cells (virus control without compound 1 or 2), and • ODCC=absorption of uninfected cells (cell control)
The inhibitory concentration 50% (IC50) was defined as the concentration of test compound 1 or control compound 2, expressed in mM, which inhibits 50% viral replication. IC50 was determined directly from the curve “dose (concentration)—response (anti-HIV effect)”. The IC50 was expressed as percentage (%) of: • (i) cell viability which was obtained by the MTT assay; or • (ii) percentage (%) inhibition of enzyme reverse transcriptase (RT) activity.
On the basic of the data about CC50 and IC50 for the test substance 1 or control substance 2, the selectivity index (SI) value was estimated.
The compounds 1 or 2 were dissolved in dimethyl sulfoxide (DMSO; Sigma-Aldrich, USA) to a concentration of 1 mol/l (1 M) and after diluted in cell growth medium RPMI 1640 with 2% heat inactivated fetal bovine serum (FBS; Sigma-Aldrich, USA). All further solutions of compounds 1 or 2 were prepared ex tempore.
MT-4 cell line was not infected with HIV-1 and was used as a classic model for reproduction of acute infection with HIV-1. The cells were cultivated in RPMI 1640 growth medium supplemented with 15% fetal bovine serum (FBS; Sigma-Aldrich, USA), 100 U/ml penicillin G sodium (Sigma-Aldrich, USA), and 100 μg/ml streptomycin sulphate (Sigma-Aldrich, USA).
HIV-1 culture fluid was chronically infected and producing HIV-1 subtype B cell line H9/HTLV III B. The culture fluid was centrifuged and collected as a virus stock. The latter, used in the experiments, was of predetermined infectivity of 2·10^6 infectious virions/ml according to the microtiter infectivity assay based on the cytopathic effect of HIV, through ingestion of MTT, containing protein 24 antigen (p24) and enzyme reverse transcriptase (RT).
After counting the cells, they were resuspended in growth medium at a concentration of 6-8·10^4 cells/100 μl. Followed screening of cell suspensions (100 μl/well of that above) into sterile 96-well plates pretreated with poly-L-lysine (PLL). Since the final volume of the culture medium in each well was 200 μl, additional 100 μl of 10% FBS (containing no cells) was added. At the end of rows and columns were not seeded cells, but only culture medium without FBS.
After 24 h, the supernatant was decanted and added in 50 μl HIV-1 in dilution 10^−1. One or two columns were not infected, acting as the control cells. The plate was placed in an incubator at 37° C. and 5% content of CO2, for 1 h. The virus was then removed and in one or two columns of infected cells were added 200 μl medium containing the appropriate concentration of the test substance 1 or the control substance 2. […]

[1] = Cytotoxicity (MNC, CC50) by MTT assay on uninfected MT-4 cell line; assay type: cell-based; details: human; MT-4 cells, 72 h, MTT; read-out: CC50 (cytotoxic concentration for 50% cells)
Experimental: (§1) Cell viability was estimated by a modification of the 3-(4,5-dimethylthiazol-2-yl)-2,5-diphenyltetrazolium bromide (MTT) assay, which is described in the literature reference 9: • 9) T. Mosmann: Rapid colorimetric assay for cellular growth and survival: Application to proliferation and cytotoxicity assays, J. Immunol.
(§2) Both MNC and CC50 values were evaluated simultaneously by morphological and by cell survival criteria. We used MTT-test, determining the living and early apoptotic cells.
(§3) The cells in the suspension culture are growing in clusters. […] Cells were passaged 1:3-1:5 at a density around 6-8·10^4 cells/ml, while the passage was re-suspended repeatedly.
(§4) Cell viability was estimated by a modification of the 3-(4,5-dimethylthiazol-2-yl)-2,5-diphenyltetrazolium bromide (MTT) assay, which is described in the reference 9.
(§5) Since the cell culture we have worked with were suspension, a solution of poly-L-lysine (PLL; Mw=90,000; Sigma-Aldrich, USA) was used for cell attachment on the bottom of a 96-well plate. The plates were treated with 100 μl of PLL at a concentration of 50 μg/ml in phosphate buffered saline (PBS; Sigma-Aldrich, USA), pH=7.4, then incubated for 1 h at room temperature. Followed aspiration of PLL solution and washing the plate twice with sterile PBS. Cells were then seeded at a concentration of 7-8·10^4 cells/100 μl for all experiments. Since the final volume of the culture medium in each well was 200 μl, additional 100 μl of 10% FBS (containing no cells) was added. For the purpose of the experiment, there was no need of forming a dense cell monolayer and after 24 h, when the adherent cells were stick to the plastic, the supernatant was decanted and adding 50 μl of previously prepared dilution of test compound. The well was completed with culture medium (150 μl) to a final volume of 200 μl. The plate was incubated at 37° C. and 5% content of CO2 for 3 days (72 h). Cells grown in medium without the test compound served as a control.
(§6) After 72 h incubation, the medium was replaced with MTT (Sigma Aldrich, USA) and dissolved at a final concentration of 5 mg/ml in serum-free medium, for further 3 h incubation. Then, the MTT-formazan product was solubilised in ethanol/dimethyl sulfoxide (DMSO; Sigma-Aldrich, USA) (1:1, V/V), and the optical density was measured at a test wavelength of 540 nm. Each experiment was performed in triplicate.
(§7) Cell viability was reported as the percentage (%) of viable cells in the wells treated with different concentrations of the test substance compared to the control cells untreated with the substances.

MT-4 cells = assay: as above; assay type: cell-based; details: for MNC (maximal non-toxic concentration): MT-4 cells, MTT
Experimental: as §1, §2, §3, §4, §5, §6, §7

[2] = MT-4 cells infected with HIV-1, MTT assay
[3] = 72 h, highest concentration of 100 mM, could be due to DMSO
[4] = 72 h after treatment, concentration range from 10 mM to 0.01 mM

Row | SMILES | IC50 (HIV-1; [2]) [nM] | Survival (% protection) (HIV-1; concentration 0.000001 mM) [%] | Survival (% protection) (HIV-1; concentration 0.00001 mM) [%] | Survival (% protection) (HIV-1; concentration 0.0001 mM) [%] | Survival (% protection) (HIV-1; concentration 0.001 mM) [%] | Survival (% protection) (HIV-1; concentration 0.005 mM) [%] | Survival (% protection) (HIV-1; concentration 0.01 mM (MNC)) [%] | % protection of the MT-4 cells in MNC (HIV-1; Table 3, MT-4 cells infected with HIV-1, MTT assay, at MNC) [%] | SI = CC50/IC50 (HIV-1) | CC50 at 72 h [1] [mM] | microscopic observation of the morphology of the monolayer (MT-4 cells; [3]) | microscopic observation of the morphology of the monolayer (MT-4 cells; [4]) | MNC (maximal non-toxic concentration) (MT-4 cells; 72 h) [mM]
1 | O=c1oc2cc(O)cc(O)c2c(O)c1-c1coc2c1c(=O)oc1cc(O)cc(O)c12 [Compound 1, 7,9-dihydroxy-3-(4,5,7-trihydroxy-2-oxo-2H-chromene-3-yl)-4H-furo[3,2-c]chromen-4-one] | 10 | 0 | 50 | 55 | 60 | 75 | 92 | 100 | 1000 · 10^3 | 10 | some morphology changes | typical cytopathology characterizing toxic effects were not registered | 0.01
2 | O=c1oc2cc(O)c(O)cc2c(O)c1-c1coc2c1c(=O)oc1cc(O)c(O)cc12 [Compound 2, 7,8-dihydroxy-3-(4,6,7-trihydroxy-2-oxo-2H-chromen-3-yl)-4H-furo[3,2-c]chromen-4-one, reference compound] | 5000 | 0 | 0 | 0 | 25 | 50 | 55 |  | 2 · 10^3 | 10 | some morphology changes | typical cytopathology characterizing toxic effects were not registered | 0.01
